Test results from ChEMBL document CHEMBL1130830, “Broad spectrum matrix metalloproteinase inhibitors: an examination of succinamide hydroxamate inhibitors with P1 C alpha gem-disubstitution” (Bioorg Med Chem Lett, 1998).

Legend:
[1] = molecular target: Stromelysin-1 (Homo sapiens, UniProt P08254); assay: Inhibition of Matrix metalloprotease-3 (MMP-3)
[2] = molecular target: T1, Interstitial collagenase (Homo sapiens, UniProt P03956); assay: Inhibition of matrix metalloprotease-1 (MMP-1)
T1 sequence (P03956 whole entry): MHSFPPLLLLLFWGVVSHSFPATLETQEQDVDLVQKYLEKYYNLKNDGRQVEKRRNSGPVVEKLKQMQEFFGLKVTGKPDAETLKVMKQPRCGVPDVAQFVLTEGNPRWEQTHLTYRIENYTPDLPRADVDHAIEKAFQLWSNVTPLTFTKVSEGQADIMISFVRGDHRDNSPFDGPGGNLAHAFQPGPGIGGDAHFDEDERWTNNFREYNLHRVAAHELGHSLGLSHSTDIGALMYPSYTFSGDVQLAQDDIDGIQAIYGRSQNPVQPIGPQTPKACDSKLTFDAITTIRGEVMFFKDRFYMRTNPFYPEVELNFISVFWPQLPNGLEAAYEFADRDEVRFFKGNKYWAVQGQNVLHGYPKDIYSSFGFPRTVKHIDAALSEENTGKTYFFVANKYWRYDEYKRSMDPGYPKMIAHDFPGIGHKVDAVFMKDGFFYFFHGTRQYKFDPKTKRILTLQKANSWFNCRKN

[3] = molecular target: 72 kDa type IV collagenase (Homo sapiens, UniProt P08253); assay: Inhibition of Matrix metalloprotease-2 (MMP-2)
72 kDa type IV collagenase, sequence (P08253 whole entry): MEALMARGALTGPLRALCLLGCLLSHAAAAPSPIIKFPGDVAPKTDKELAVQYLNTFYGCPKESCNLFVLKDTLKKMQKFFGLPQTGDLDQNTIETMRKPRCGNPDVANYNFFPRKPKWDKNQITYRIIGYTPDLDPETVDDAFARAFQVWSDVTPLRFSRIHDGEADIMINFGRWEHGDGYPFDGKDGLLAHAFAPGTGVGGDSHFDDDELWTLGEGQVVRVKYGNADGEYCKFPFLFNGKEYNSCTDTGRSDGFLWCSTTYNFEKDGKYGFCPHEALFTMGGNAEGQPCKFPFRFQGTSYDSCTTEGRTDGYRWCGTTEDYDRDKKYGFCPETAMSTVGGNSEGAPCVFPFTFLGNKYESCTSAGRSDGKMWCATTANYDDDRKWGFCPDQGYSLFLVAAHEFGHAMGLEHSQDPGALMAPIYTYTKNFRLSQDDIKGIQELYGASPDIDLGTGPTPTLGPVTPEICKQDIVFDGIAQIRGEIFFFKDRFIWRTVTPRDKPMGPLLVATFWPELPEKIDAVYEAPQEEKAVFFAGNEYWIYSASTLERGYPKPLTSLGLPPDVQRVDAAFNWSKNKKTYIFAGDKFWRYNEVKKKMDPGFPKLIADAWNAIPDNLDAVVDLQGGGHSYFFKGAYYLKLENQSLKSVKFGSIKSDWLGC

Stromelysin-1, sequence (P08254 whole entry): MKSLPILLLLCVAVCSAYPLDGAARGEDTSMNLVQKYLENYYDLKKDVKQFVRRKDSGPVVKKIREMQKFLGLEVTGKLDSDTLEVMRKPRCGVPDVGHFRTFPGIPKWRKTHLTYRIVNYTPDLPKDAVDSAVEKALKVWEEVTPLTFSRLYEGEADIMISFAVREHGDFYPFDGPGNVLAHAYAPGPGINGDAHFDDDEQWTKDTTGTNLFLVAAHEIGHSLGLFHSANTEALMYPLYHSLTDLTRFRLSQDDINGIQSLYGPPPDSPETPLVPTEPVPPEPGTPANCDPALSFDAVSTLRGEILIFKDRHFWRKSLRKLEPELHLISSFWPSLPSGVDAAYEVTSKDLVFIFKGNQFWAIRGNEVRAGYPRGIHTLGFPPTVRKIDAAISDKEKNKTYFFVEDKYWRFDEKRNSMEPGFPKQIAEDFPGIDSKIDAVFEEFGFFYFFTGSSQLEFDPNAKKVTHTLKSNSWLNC

Compound | IC50 [1] [nM] | IC50 [2] [nM] | IC50 [3] [nM]
C=CCC(CC=C)(C(=O)NO)[C@@H](CC(C)C)C(=O)N[C@@H](Cc1ccccc1)C(=O)NC | 2600 | 550 | 110
C=CC[C@](C)(C(=O)NO)[C@@H](CC(C)C)C(=O)N[C@@H](CC1CCCCC1)C(=O)NCCc1ccccc1 | 160 | 110 | 64
C=CC[C@](C)(C(=O)NO)[C@@H](CC(C)C)C(=O)N[C@@H](CC1CCCCC1)C(=O)NCCc1ccc(S(N)(=O)=O)cc1 | 15 | 6.9 | 23
C=CC[C@@](C)(C(=O)NO)[C@@H](CC(C)C)C(=O)N[C@@H](Cc1ccccc1)C(=O)NC | 420 | 52 | 66
C=CC[C@](C)(C(=O)NO)[C@@H](CC(C)C)C(=O)N[C@H](C(=O)Nc1ccccc1)C(C)(C)C | 95 | 50 | 6.2
CNC(=O)[C@H](Cc1ccccc1)NC(=O)[C@H](CC(C)C)C(C)(C)C(=O)NO | 170 | 9.4 | 2.3
C=CC[C@](C)(C(=O)NO)[C@@H](CC(C)C)C(=O)N[C@@H](Cc1ccccc1)C(=O)Nc1ccccc1 | 91 | 120 | 52
C=CC[C@](C)(C(=O)NO)[C@@H](CC(C)C)C(=O)N[C@@H](Cc1ccccc1)C(=O)NC | 25 | 3.1 | 4.2
C=CCC(C(=O)NO)C(CC(C)C)C(=O)N[C@@H](Cc1ccccc1)C(=O)NC (single isomer, unassigned) | 12 | 2.2 | 1.8

Second part, the compound after the results:

IC50 [1] [nM] | IC50 [2] [nM] | IC50 [3] [nM] | Compound
170 | 37 | 50 | CNC(=O)[C@H](Cc1ccccc1)NC(=O)[C@H](CC(C)C)C1(C(=O)NO)CCCC1
50 | 1.3 | 1.3 | CNC(=O)[C@H](Cc1ccccc1)NC(=O)[C@H](CC(C)C)[C@H](C)C(=O)NO
480 | 2.7 | 2.5 | C=CC[C@](C)(C(=O)NO)[C@@H](CC(C)C)C(=O)N[C@H](C(=O)NC)C(C)(C)C
59 | 35 | 35 | C=CC[C@@H](C(=O)NO)[C@@H](CC(C)C)C(=O)N[C@@H](Cc1ccccc1)C(=O)NC
